What was measured:
Format in all cases: physicochemical
[1] = dispersed particle size (size of particles as dispersed in water), laser diffraction particle size analyzer
Protocol: Each of the samples thus prepared was measured for the dispersed particle size (i.e., the size of particles as dispersed in water) by means of a laser diffraction particle size analyzer (Nikkiso Co., Ltd.); in addition, the samples were analyzed for average size (at 50% cumulative frequency) and the proportion of particles not larger than 50 μm. […]

[2] = specific surface area measurement, nitrogen gas as adsorbate; details: Table 2
Protocol: Each of the samples thus prepared was measured for the dispersed particle size by means of a laser diffraction particle size analyzer; in addition, a specific surface area measurement was conducted before and after the granulation by means of a specific surface area measuring instrument (Shimadzu Corp.) using nitrogen gas as adsorbate.

[3] = particle size of the comminuted powder (hammer mill); details: comminuted with a hammer mill at about 3,000-3,600 rpm
Protocol: A dry powder sucralfate (as specified in Pharmacopoeia of Japan, JP) was comminuted with a hammer mill at about 3,000-3,600 rpm.

[4] = Table 2, sucralfate:polyethylene glycol mixing proportions
[5] = Table 2, sucralfate:polyethylene glycol mixing proportions, melt granulated at 300 rpm to 65° C.

Substance | Dispersed particle size, Average ([1]; Table 1, average size at 50% cumulative frequency, dispersed in water) [μm] | Dispersed particle size, Percent 50 μm and less ([1]; Table 1, dispersed in water) [%] | Dispersed particle size, Percent 50 μm and less [1, 4] [%] | Dispersed particle size, Average [1, 5] [μm] | Specific surface area [2] [m^2 /g] | particle size of comminuted powder, in words [3]
sucralfate [Comminuted sucralfate powder] | 4.4 | 100.0 | 100.0 | 4.4 | 5.1 | entirely composed of particles not larger than 50 μm
sucralfate [Sucralfate of JP] |  |  | 86.2 | 18.6 | 1.6 | 

From patent publication US5718923A, “Melt granulated sucralfate preparations and a process for their production” (Chugai Seiyaku Kabushiki Kaisha, priority 1994, dated 1998)
